Measurements as given in patent publication US20060166994A1, “Method for treating renal failure” (priority 2003, published 2006).

What was measured:
[1] = 180-day mortality in heart failure patients with normal or impaired renal function (pooled levosimendan trials 3001021b and 3001030); type: in vivo, human; conditions: for 180-day mortality in levosimendan groups: heart failure patients, i.v. infusion 6 or 24 h
Description: In total, 701 heart failure patients from levosimendan trials 3001021b and 3001030 were included into the analysis to determine the effect of levosimendan on mortality in patients with normal or impaired renal function.
The study 3001021b compared levosimendan with dobutamine in a double-blind, parallel-group, randomised trial in 203 patients with low-output heart. Treatment with levosimendan (n=103) was started with a loading dose of 24 μg/kg infused over 10 minutes and followed by a continuous infusion of 0.1 μg/kg/min. For patients in whom the cardiac index had not increased by at least 30% compared with the baseline value at 2 hours, the dose was doubled to 0.2 μg/kg/min for levosimendan (n=69). Infusions were continued for totally 24 hours. Mortality was followed prospectively up to 31 days and retrospectively up to 180 days.
The study 3001030 evaluated the safety of levosimendan in patients with left ventricular failure after an acute myocardial infarction. The study was a placebo-controlled, double-blind, parallel-group, randomised, trial in 504 patients. Levosimendan was administered as a 10-minute loading dose followed by a continuous infusion for a total of 6 hours. The following doses were used: 6 μg/kg+0.1 μg/kg/min (n=103), 12 μg/kg+0.2 μg/kg/min (n=100), 24 μg/kg+0.2 μg/kg/min (n=99), 24 μg/kg+0.4 μg/kg/min (n=100) and similar placebo infusion (n=102). All-cause mortality was followed prospectively up to 14-days and retrospectively up to 180-days.
The patients combined from the above studies were classified according to their baseline renal function. The formula of Cockroft and Gault (Lafayette et al, 1997) was used to calculate the creatinine clearance (CLcr) values from the baseline serum creatinine) values as follows: [formula] [formula]

[2] = Elimination half-life of the active metabolite (II) in man; conditions: human, in vivo

half-life [2] | SMILES | Decrease in mortality versus control groups by renal function ([1]; 180-day, comparison of normal and impaired renal function) | 180-day mortality in levosimendan groups ([1]; mild renal impairment (CLcr 50-80 ml/min)) | 180-day mortality in levosimendan groups ([1]; normal renal function (CLcr > 80 ml/min))
 | CC1CC(=O)NN=C1c1ccc(NN=C(C#N)C#N)cc1 (single isomer, unassigned; (-)) [Levosimendan, (−)-enantiomer of [[4-(1,4,5,6-tetrahydro-4-methyl-6-oxo-3-pyridazinyl)phenyl]hydrazono]propanedinitrile] | decrease in mortality was highest in patients with impaired renal function | 18% | 15%
~72 h | CC(=O)Nc1ccc(C2=NNC(=O)C[C@H]2C)cc1 [active metabolite (II), (R)-N-[4-(1,4,5,6-tetrahydro-4-methyl-6-oxo-3-pyridazinyl)phenyl]acetamide] |  |  | 
